Laboratory results from ChEMBL document CHEMBL1144455, “A small molecule-kinase interaction map for clinical kinase inhibitors” (Nat Biotechnol, 2005).

Columns and labels:
[1] = molecular target: Cyclin-dependent kinase 5 (Homo sapiens, UniProt Q00535)
[2] = molecular target: Tyrosine-protein kinase BTK (Homo sapiens, UniProt Q06187)
Ephrin type-A receptor 8 = molecular target: T1, Ephrin type-A receptor 8 (Homo sapiens, UniProt P29322)
T1 sequence (P29322 whole entry): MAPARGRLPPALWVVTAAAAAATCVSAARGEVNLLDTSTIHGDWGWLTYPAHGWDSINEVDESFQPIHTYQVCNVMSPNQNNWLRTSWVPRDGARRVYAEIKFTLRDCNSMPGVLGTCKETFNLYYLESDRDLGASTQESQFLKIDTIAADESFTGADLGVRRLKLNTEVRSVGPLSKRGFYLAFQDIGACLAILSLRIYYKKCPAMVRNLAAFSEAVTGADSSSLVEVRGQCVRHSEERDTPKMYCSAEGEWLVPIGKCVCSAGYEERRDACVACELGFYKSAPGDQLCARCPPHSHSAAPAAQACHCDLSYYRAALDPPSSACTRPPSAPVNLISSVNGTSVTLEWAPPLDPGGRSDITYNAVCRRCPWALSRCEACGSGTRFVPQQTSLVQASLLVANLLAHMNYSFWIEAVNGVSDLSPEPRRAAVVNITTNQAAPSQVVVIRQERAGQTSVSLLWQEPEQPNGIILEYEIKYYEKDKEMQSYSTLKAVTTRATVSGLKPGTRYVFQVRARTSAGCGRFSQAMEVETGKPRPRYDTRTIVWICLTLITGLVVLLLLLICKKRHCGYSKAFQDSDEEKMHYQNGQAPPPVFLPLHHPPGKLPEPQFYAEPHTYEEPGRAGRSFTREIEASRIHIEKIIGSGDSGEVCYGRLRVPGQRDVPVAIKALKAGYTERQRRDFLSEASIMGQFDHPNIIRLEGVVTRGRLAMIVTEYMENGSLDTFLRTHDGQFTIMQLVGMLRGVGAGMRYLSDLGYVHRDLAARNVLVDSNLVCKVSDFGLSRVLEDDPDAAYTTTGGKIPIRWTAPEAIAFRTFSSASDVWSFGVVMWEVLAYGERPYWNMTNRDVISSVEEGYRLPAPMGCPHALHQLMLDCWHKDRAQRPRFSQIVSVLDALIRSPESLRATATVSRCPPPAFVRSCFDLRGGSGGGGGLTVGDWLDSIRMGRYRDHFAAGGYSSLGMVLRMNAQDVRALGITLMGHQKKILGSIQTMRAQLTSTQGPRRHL

[3] = molecular target: Tyrosine-protein kinase Fer (Homo sapiens, UniProt P16591)
Chain of Tyrosine-protein kinase Fer (P16591 whole entry): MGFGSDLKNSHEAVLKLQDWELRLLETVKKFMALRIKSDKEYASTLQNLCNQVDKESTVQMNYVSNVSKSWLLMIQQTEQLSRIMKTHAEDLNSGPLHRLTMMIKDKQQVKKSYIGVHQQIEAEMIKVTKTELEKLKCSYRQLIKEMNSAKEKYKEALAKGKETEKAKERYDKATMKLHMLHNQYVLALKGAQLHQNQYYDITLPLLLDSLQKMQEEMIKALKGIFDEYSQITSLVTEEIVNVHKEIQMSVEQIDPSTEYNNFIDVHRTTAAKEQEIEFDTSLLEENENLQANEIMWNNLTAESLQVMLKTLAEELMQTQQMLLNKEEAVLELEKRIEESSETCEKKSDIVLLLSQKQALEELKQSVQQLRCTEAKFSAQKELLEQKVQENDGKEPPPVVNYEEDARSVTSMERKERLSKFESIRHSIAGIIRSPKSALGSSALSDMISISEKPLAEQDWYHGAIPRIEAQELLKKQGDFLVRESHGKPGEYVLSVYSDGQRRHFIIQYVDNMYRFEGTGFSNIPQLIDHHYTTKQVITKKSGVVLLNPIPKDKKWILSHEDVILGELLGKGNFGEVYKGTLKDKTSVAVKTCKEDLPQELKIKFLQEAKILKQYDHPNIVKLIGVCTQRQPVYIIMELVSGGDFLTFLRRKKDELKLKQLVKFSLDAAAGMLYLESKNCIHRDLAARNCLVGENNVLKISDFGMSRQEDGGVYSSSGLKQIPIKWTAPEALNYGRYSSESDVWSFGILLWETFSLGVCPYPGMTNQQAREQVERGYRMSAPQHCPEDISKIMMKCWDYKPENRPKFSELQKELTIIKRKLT

Angiopoietin-1 receptor = Angiopoietin-1 receptor (Homo sapiens, UniProt Q02763)
Chain of Angiopoietin-1 receptor (Q02763 whole entry): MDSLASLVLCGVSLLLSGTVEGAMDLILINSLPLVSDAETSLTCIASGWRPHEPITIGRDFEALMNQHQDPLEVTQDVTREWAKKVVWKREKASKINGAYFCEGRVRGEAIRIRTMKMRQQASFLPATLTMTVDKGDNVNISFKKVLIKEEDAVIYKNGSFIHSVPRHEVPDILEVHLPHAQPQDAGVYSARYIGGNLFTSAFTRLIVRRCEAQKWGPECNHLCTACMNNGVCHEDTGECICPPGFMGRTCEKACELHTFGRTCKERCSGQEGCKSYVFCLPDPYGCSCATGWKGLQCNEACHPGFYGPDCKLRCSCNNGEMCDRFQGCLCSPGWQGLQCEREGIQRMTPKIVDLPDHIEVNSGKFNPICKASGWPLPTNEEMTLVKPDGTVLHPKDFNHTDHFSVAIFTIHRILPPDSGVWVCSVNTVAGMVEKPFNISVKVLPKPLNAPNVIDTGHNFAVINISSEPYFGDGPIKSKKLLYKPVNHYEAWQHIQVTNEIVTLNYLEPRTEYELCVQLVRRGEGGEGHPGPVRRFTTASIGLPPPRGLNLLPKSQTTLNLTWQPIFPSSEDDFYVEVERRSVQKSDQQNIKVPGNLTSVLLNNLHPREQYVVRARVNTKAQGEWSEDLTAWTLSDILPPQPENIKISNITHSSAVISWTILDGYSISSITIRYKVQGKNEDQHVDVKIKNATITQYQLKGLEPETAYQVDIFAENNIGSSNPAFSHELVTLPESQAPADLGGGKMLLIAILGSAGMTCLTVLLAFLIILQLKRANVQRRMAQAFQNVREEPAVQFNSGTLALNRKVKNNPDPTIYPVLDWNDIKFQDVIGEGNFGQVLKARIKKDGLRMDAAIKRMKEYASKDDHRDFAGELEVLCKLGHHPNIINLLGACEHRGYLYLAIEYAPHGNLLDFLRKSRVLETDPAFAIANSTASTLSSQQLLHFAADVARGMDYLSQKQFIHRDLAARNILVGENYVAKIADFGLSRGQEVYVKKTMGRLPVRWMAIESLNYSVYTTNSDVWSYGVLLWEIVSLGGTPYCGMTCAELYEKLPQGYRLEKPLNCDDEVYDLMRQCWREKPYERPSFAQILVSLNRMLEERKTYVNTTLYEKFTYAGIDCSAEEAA

[4] = molecular target: Tyrosine-protein kinase HCK (Homo sapiens, UniProt P08631)
Chain of Tyrosine-protein kinase HCK (P08631 whole entry): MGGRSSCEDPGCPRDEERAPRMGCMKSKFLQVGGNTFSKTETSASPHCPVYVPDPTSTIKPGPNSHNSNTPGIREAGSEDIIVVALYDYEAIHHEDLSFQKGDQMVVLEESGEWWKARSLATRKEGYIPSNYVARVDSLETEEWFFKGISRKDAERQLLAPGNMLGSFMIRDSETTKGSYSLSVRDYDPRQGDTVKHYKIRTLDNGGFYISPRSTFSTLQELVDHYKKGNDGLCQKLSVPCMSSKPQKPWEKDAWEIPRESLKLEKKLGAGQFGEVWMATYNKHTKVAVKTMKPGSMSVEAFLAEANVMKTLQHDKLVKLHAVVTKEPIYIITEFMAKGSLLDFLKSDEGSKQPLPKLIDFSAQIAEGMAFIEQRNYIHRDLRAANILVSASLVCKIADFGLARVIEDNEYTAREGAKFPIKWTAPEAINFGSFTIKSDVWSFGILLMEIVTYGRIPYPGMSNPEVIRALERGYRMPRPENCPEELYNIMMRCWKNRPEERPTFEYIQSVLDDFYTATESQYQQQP

[5] = molecular target: Tyrosine-protein kinase Fyn (Homo sapiens, UniProt P06241)
Chain of Tyrosine-protein kinase Fyn (P06241 whole entry): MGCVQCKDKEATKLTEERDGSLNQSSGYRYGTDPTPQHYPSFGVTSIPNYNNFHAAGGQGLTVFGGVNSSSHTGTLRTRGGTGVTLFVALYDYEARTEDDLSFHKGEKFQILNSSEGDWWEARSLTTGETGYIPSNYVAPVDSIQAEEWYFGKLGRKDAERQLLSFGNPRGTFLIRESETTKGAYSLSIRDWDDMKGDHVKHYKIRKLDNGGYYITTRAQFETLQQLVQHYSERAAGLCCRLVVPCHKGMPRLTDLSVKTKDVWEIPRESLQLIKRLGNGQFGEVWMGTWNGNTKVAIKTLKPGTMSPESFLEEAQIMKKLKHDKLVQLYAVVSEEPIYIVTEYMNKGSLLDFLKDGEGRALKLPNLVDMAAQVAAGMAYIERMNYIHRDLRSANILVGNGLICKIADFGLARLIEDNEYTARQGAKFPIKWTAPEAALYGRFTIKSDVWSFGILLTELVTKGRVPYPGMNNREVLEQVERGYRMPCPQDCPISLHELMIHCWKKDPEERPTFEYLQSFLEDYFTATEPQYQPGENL

[6] = molecular target: Mitogen-activated protein kinase 11 (Homo sapiens, UniProt Q15759)
Chain of Mitogen-activated protein kinase 11 (Q15759 whole entry): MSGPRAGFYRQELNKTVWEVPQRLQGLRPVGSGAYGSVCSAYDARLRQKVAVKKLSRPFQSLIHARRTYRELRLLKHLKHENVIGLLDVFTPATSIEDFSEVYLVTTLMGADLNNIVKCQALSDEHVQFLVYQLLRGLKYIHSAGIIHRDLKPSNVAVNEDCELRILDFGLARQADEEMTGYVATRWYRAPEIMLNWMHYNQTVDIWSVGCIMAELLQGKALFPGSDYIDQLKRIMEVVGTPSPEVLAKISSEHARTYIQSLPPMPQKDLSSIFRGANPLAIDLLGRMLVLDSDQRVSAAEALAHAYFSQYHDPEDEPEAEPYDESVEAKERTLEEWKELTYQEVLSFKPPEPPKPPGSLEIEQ

Ephrin type-A receptor 6 = molecular target: T2, Ephrin type-A receptor 6 (Homo sapiens, UniProt Q9UF33)
T2 sequence (Q9UF33 whole entry): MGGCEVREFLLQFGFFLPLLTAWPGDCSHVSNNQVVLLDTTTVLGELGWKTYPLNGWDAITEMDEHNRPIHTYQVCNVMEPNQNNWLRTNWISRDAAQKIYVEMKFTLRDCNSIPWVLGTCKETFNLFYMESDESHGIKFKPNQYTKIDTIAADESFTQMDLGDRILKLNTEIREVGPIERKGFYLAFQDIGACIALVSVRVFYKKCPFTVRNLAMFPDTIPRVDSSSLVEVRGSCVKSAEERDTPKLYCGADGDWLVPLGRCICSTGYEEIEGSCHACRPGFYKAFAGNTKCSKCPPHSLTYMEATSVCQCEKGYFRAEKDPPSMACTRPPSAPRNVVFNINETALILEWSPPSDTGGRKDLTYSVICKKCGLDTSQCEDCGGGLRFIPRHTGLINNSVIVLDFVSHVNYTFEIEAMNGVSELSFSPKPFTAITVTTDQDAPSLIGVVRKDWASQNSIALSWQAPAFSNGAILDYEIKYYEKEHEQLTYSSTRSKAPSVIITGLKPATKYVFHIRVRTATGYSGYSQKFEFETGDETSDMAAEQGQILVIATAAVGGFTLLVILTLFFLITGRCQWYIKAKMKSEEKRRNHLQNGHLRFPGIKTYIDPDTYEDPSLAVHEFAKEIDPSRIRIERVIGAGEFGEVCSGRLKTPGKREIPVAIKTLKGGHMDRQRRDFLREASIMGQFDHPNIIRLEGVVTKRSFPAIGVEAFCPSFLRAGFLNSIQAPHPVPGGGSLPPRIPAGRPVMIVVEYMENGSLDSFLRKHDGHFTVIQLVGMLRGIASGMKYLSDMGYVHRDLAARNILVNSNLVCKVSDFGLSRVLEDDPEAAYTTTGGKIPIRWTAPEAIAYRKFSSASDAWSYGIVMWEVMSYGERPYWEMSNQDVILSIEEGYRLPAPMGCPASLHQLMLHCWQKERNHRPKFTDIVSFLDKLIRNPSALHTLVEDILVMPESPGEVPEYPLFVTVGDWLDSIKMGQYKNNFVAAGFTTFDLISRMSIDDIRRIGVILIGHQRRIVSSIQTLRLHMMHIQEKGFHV

[7] = molecular target: T3, Serine/threonine-protein kinase ULK3 (Mus musculus, UniProt Q3U3Q1)
T3 sequence (Q3U3Q1 whole entry): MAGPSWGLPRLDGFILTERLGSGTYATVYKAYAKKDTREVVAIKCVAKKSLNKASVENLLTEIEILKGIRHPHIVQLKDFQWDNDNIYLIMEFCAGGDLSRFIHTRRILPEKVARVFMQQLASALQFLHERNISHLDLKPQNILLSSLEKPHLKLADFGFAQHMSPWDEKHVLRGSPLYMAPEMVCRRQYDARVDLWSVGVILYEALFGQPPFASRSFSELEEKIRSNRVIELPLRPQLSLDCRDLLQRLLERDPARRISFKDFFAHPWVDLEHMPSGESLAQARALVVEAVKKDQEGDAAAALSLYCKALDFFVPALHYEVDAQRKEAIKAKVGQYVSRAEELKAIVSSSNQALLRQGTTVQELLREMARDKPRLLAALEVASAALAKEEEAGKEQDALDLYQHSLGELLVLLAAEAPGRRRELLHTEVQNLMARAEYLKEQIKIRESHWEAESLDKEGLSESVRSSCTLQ

Measured: Kd

Chain of Tyrosine-protein kinase BTK (Q06187 whole entry): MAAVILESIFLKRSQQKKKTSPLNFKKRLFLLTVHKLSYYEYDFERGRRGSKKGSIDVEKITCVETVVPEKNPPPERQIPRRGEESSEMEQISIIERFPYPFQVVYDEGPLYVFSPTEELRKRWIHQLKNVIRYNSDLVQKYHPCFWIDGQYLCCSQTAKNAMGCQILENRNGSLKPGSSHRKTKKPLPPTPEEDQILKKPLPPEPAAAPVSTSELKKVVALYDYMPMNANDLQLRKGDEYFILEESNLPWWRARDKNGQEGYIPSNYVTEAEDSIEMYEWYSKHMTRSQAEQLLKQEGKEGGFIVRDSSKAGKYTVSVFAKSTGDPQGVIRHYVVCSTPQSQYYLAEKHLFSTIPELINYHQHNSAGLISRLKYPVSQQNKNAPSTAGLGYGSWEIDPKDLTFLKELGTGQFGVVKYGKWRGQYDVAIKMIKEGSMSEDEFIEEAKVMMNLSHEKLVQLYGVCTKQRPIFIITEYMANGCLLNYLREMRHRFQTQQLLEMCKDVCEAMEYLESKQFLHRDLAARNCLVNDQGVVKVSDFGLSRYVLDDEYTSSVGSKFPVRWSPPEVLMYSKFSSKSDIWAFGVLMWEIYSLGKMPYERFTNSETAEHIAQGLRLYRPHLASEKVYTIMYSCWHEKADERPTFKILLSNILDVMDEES
Chain of Cyclin-dependent kinase 5 (Q00535 whole entry): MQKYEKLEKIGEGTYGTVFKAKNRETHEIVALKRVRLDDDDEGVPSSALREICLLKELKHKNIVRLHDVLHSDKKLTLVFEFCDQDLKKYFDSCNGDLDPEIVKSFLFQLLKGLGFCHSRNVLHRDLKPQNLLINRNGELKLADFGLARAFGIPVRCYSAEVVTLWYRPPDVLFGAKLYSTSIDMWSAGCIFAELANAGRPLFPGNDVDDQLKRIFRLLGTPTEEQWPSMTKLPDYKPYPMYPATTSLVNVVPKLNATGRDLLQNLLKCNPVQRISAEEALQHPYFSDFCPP

C#Cc1cccc(Nc2ncnc3cc(OCCOC)c(OCCOC)cc23)c1 [ERLOTINIB]
not listed: Ephrin type-A receptor 6 | [7]
Not Active: all other assays above

Cc1ccc(NC(=O)c2ccc(CN3CCN(C)CC3)cc2)cc1Nc1nccc(-c2cccnc2)n1 [IMATINIB]
not listed: Ephrin type-A receptor 8 | [5]
Not Active: all other assays above

O=c1ncn2nc(Sc3ccc(F)cc3F)ccc2c1-c1c(Cl)cccc1Cl [NEFLAMAPIMOD]
not listed: Ephrin type-A receptor 8 | [4] | [6]
Not Active: all other assays above

CCOc1cc2ncc(C#N)c(Nc3ccc(F)c(Cl)c3)c2cc1NC(=O)/C=C/CN(C)C [PELITINIB]
Not Active: [1] | [6]

Oc1ccc(-c2nc(-c3ccc(F)cc3)c(-c3ccncc3)[nH]2)cc1 [SB-202190]
not listed: [6]
Not Active: all other assays above

C[S+]([O-])c1ccc(-c2nc(-c3ccc(F)cc3)c(-c3ccncc3)[nH]2)cc1 (stereo not given) [SB-203580]
not listed: [6]
Not Active: all other assays above

CC[C@H](CO)Nc1nc(NCc2ccccc2)c2ncn(C(C)C)c2n1 [SELICICLIB]
not listed: [1]
Not Active: all other assays above

Oc1c2ccccc2c2c3c(cccc13)N=N2 [SP-600125]
not listed: [1] | [7]
Not Active: all other assays above

COc1cc2c(N3CCN(C(=O)Nc4ccc(OC(C)C)cc4)CC3)ncnc2cc1OCCCN1CCCCC1 [TANDUTINIB]
Not Active: all assays above
